Experimental data published in patent US20170354645A1, “METHODS FOR TREATING KIDNEY DISORDERS” (Eli Lilly and Company, priority 2014, published 2017).

Assays:
[1] = serum concentration in remnant kidney mice; format: in vivo; conditions: 129/SvEv, mouse, week 4 of dosing, 24 hours after a 10 mg/kg oral dose, once daily
Method: (§1) The oral vehicle for testing the compound of Formula I is 5% Kolliphor® HS 15, 5% EtOH, NaCMC 1%/SLS 0.5%/Antifoam 0.05%/Povidone 0.085% from Ricca Chemical Company. The sham group is fed a conventional diet (Purina Formulab Diet 5008) and is not dosed with vehicle or the compound of Formula I during the dosing portion of the study. One of the remaining two groups is orally dosed vehicle once daily (10 ml/kg), and the other group is orally dosed once daily with the compound of Formula I at 10 mg/kg, in vehicle. Both dosing groups receive a conventional diet (Purina Formulab Diet 5008) during the dosing portion of the study.
(§2) Spot urine samples are collected on day −7 prior to the dosing portion of the study. Urine samples are taken weekly during the dosing portion of the study. Body weights are measured on days 15, 29, 43, 57, 64, 71, and 78. Blood samples are taken at week 4 of the dosing portion of the study a well as at the study termination (day 84). At week 4 of the dosing portion of the study, the mean serum concentration of the compound of Formula I 24 hours after a 10 mg/kg dose is 49±66 ng/ml.

[2] = tested on: mouse remnant kidney model; assay: mouse remnant kidney model (5/6th nephrectomy) of chronic renal failure; format: in vivo; conditions: 10 mg/kg orally once daily
Method: The purpose of this assay is to analyze the compound of Formula I in a mouse chronic renal failure model, and particularly the ability to improve albuminuria and renal histopathological lesions. This assay is known as the mouse remnant kidney model, where following a unilateral nephrectomy, partial surgical removal of approximately ⅓ of the remaining kidney is carried out to replicate chronic renal failure. This model is sometimes also referred to as a “5/6th nephrectomy” model that was originally developed in rat. A description of this model may be found in published US patent application US 2014/0271675 (Qi, et al.) and (Leelahavanichkul, et al. (2010) Kidney Int. 78(11): 1136-1153.
Thirty-five eight to nine week old mice (strain 129/SvEv from Taconic) are employed in the model, and all have surgeries. A sham group having five mice have surgeries where the kidneys are not removed. The mice in the remaining two groups having fifteen mice each undergo remnant surgery. The surgeries take place approximately three weeks prior to the dosing portion of the study. The dosing portion of the study is 85 days long.
as §1, §2

[3] = renal morphology, compared with vehicle treatment

For `Cc1cc(OCc2c(-c3ccccc3OC(F)(F)F)noc2C2CC2)ccc1-c1ccc2c(C(=O)O)csc2c1` [compound of Formula I, 6-{4-[5-Cyclopropyl-3-(2-trifluoromethoxy-phenyl)-isoxazol-4-ylmethoxy]-2-methyl-phenyl}-benzo[b]thiophene-3-carboxylic acid], the concentration at 24 h [1] was 49 ± 66 ng/mL, the “reduction in urine ACR (albumin/creatinine ratio)” value ([2]; remnant mice, observed within 2 weeks, persists through end of 85-day dosing) was 32-38% and the interstitial inflammation ([2]; renal morphology) was “mildly reduced”. For the same molecule, the tubular regeneration ([2]; renal morphology) was “mildly reduced”, the “incidence and severity of glumerulosclerosis” value [2, 3] was “notably reduced” and the “incidence and severity of tubular protein” value [2, 3] was “notably reduced”. The “incidence of tubular changes (dilation, atrophy)” value [2, 3] was “reduced”.
